Results reported in US20240165042A1, “COMPOSITION FOR CONTROLLED RELEASE OF PHYSIOLOGICALLY ACTIVE SUBSTANCES AND PROCESS FOR ITS PREPARATION” (BALCHEM ITALIA S.R.L., priority 2017, published 2024).

Tests used:
Assay type in all cases: in vitro ADME
[1] = Total bioavailability in vitro (combination of ruminal by-pass and post-ruminal digestibility)
Description: (§1) The experimental conditions of use were 39° C., 15 rpm, 8 hours presence in the solution with “ruminal” pH of about 6.8. • Daisy^II ANKOM: commercially available laboratory artificial rumen, for determining the degree of ruminal bypass. The experimental conditions of use were 39° C., 8 hours presence in ruminal conditions, buffer solution at “ruminal” pH with insertion of “ruminal inoculum” and re-creation of ruminal anaerobiosis according to a university procedure known to those skilled in the art. The pH normally tested in the quality control phase is 6.8. Pharmaceutical dissolver for determining the degree of post-ruminal digestibility. The experimental conditions of use followed the procedure known to experts in the field as “Boisen Test” and, in particular, they were: • 39° C., 30 rpm, 2 h, buffer solution with “gastric” pH (2.0)+pepsin inoculum. • 39 °C, 30 rpm, 4 h, buffer solution with “intestinal” pH (6.8)+pancreatine inoculum. • 39° C., 30 rpm, 18 h, buffer solution with “intestinal” pH (6.8)+lipase and bile extract inoculum.
(§2) Then the microgranules were subjected to an evaluation of the degree of ruminal by-pass, post-ruminal digestibility and total bioavailability using the Boisen method.

[2] = Degree of ruminal by-pass in vitro (pharmaceutical dissolver / Daisy II ANKOM artificial rumen, 39° C., 8 hours, ruminal pH about 6.8)
Description: In the context of the present invention, the term “ruminal by-pass” indicates the percentage amount by weight of substance reaching the animal post-ruminal area, namely the stomach and the intestine, with respect to the total amount by weight of the orally administered substance.
The experimental conditions of use were 39° C., 15 rpm, 8 hours presence in the solution with “ruminal” pH of about 6.8. • Daisy^II ANKOM: commercially available laboratory artificial rumen, for determining the degree of ruminal bypass. The experimental conditions of use were 39° C., 8 hours presence in ruminal conditions, buffer solution at “ruminal” pH with insertion of “ruminal inoculum” and re-creation of ruminal anaerobiosis according to a university procedure known to those skilled in the art. […] Pharmaceutical dissolver for determining the degree of post-ruminal digestibility. The experimental conditions of use followed the procedure known to experts in the field as “Boisen Test” and, in particular, they were: • 39° C., 30 rpm, 2 h, buffer solution with “gastric” pH (2.0)+pepsin inoculum. • 39 °C, 30 rpm, 4 h, buffer solution with “intestinal” pH (6.8)+pancreatine inoculum. • 39° C., 30 rpm, 18 h, buffer solution with “intestinal” pH (6.8)+lipase and bile extract inoculum.
as §2

[3] = Post-ruminal digestibility in vitro (pharmaceutical dissolver, Boisen Test: gastric pH 2.0 + pepsin, intestinal pH 6.8 + pancreatine, then lipase and bile extract)
Description: as §1, §2

[4] = theoretical administration of 100 g of choline chloride
[5] = theoretical administration of 200 g of product

## C[N+](C)(C)CCO.[Cl-] [Product A, choline chloride]
[1]; [4]
  Bioavailable Choline Chloride: 0 g
[1]; [5]
  Bioavailable Choline Chloride: 0 g
[2]; [4]
  Bypassed Choline Chloride: 0 g
  Choline Chloride lost in the rumen in 8 h: 101 g
[2]; [5]
  Bypassed Choline Chloride: 0 g
  Choline Chloride lost in the rumen in 8 h: 198 g
[3]; [4]
  Choline Chloride in faeces: 0 g
[3]; [5]
  Choline Chloride in faeces: 0 g
